Experimental data published in patent publication US20250099415A1, “Methods for Inhibiting the Progression of Oxidative Retinal Disease” (BioJiva LLC, priority 2021, published 2025).

Test system: macular degeneration patients
Assay: Clinical study of geographic atrophy progression in macular degeneration patients, treated versus placebo cohort
Format: in vivo, human
Protocol: This example illustrates the reduction in the rate of macular degeneration progression in a cohort of patients treated with deuterated docosahexaenoic acid ethyl ester similar to that of Example 1, as compared to a cohort of placebo patients. Specifically, the treated cohort […]. The patients are maintained on this dosing regimen throughout the clinical study. Periodic measurements of further geographic atrophy development are obtained.
Dosing is continued for 6 or 12, or 18 or 24 months. At that time, the average extent of geographic atrophy progression is measured for each cohort. The efficacy of the treatment protocol is evaluated by comparing the extent of geographic atrophy progression in a treated population against a placebo population. […]
Alternatively, the rate of disease progression for an individual patient can be assessed by the following: • a) determine the rate of disease progression for said individual patient by measuring the extent of geographic atrophy in the patient's retina at the start of therapy and at 6, 12, 18 or 24 months post start of therapy and assigning a […] value “D” to that differential; • b) determine the average rate of disease progression for a cohort of patients treated with placebo (safflower oil) by measuring the extent of geographic atrophy in each of the patient's retina at the start of therapy and at 6, 12, 18 or 24 months post start of therapy, determining the difference between the extent of atrophy at the start of therapy and at the later time point, and then obtaining an average for that differential and assigning a second value designated as “E” to that average differential; • c) calculating the difference between D and E and assign “F” to that value (e.g, E−D=F); • d) assign a positive value to “F” if E is greater than D; • e) assign a negative value to “F” if E is less than D; and • f) divide F by E and multiply by 100 [(F/E)×100]. […]

[1] = 6, 12, 18 or 24 months post start of therapy, placebo safflower oil

Deuterated Docosahexaenoic Acid Ethyl Ester
reduction in the rate of disease progression (extent of geographic atrophy progression, treated population against placebo population) (250 mg/day, dosing for 6 or 12, or 18 or 24 months, versus safflower oil placebo cohort): statistically significant reduction in the rate of disease progression | percent reduction in geographic atrophy, individual treated patient vs placebo cohort [(F/E)×100] [1]: positive percent reduction in geographic atrophy that is statistically significant | percent reduction in geographic atrophy, treated cohort vs placebo cohort [(C/B)×100] [1]: positive percent reduction in geographic atrophy that is statistically significant
